From US20230066011A1, “PYRROLOPYRIMIDINE DERIVATIVE, AND PHARMACEUTICAL COMPOSITION FOR PREVENTING OR TREATING PROTEIN KINASE-RELATED DISEASE COMPRISING SAME AS ACTIVE INGREDIENT” (VORONOI CO., LTD., priority 2019, published 2023) come the findings set out here.

For one assay, the target named is T1, human GST-DYRK1A (Homo sapiens, UniProt Q13627).
T1 construct: purified human GST-DYRK1A (full length, Thermo Scientifics) enzyme; purchased Thermo Scientifics
Put plainly: GST-DYRK1A enzyme inhibition, ADP-Glo kinase assay. The class given is biochemical. The settings on record: ATP 10 μM, GST-DYRK1A full length, read-out: DYRK1 IC50. An outline of the steps: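 Full-length human GST-DYRK1A (10 ng) with 10 μM ATP and specific substrate in 40 mM Tris-HCl pH 7.4, 20 mM MgCl2, 0.5 mg/mL BSA, 50 μM DTT, 1 h at 25 °C. ADP formation read by ADP-Glo luminescence relative to solvent control; IC50 from three data sets.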

The target in a further assay is LRRK2 (G2019S) (Homo sapiens, UniProt Q5S007, G2019S). Description: LRRK2 G2019S enzyme inhibition, ADP-Glo kinase assay. The note with it: ATP 25 μM. On the set-up: purchased SignalChem L10-12GG. The class given is biochemical. An outline of the steps:
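Purified human LRRK2 G2019S (16 ng) with 25 μM ATP and 0.2 μg substrate, 2 h at 25° C. in Tris-HCl pH 7.4, MgCl2, BSA, DTT buffer; compounds at 12 final concentrations, 50 μM down to 0.000001024 μM. ADP-Glo luminescence versus solvent control gave IC50.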
A general note: ADP-Glo turns the ADP formed in a reaction into a luminescent signal.

Another assay relates to MDA-MB-231 cell line. Put plainly: Inhibition of proliferation of MDA-MB-231 cancer cells (Cell Titer-Glo). Format: cell-based. The settings on record: Homo sapiens, 72 hours. The procedure: (§1) To evaluate an inhibitory effect on the proliferation of cancer cells, each of an MDA-MB-231 cell line (Korean Cell Line Bank #30026) and an MDA-MB-468 cell line as triple-negative breast cancer cell lines, and SHP-77 (ATCC #CRL-2195) as a small-cell lung cancer cell line was cultured in DMEM (HyClone #SH30243) or an RPMI medium (HyClone #SH3027.01) to analyze a cell growth rate. More specifically, a cell line was plated on a 96-well flat bottom plate (Corning #3903) at a density of 2,000 cells/100 μL per well, and then treated with 11 concentrations of the Example compound, a solution of which was diluted 3-fold so that a final concentration of the compound was 10.000000, 3.333333, 1.111111, 0.370370, 0.123457, 0.041152, 0.013717, 0.004572, 0.001524, 0.000508, and 0.000169 μM. After 72 hours, each of the culture media was treated with 100 μL of Cell Titer-Glo (Promega G7573), and then cultured at room temperature for 10 minutes. Then, a degree of luminescence was measured using a microplate reader. A GI50 value was calculated from the measured degree of luminescence using Prism (Version 8.2 GraphPad) software.
For orientation: ATP-based viability assays read luminescence as a measure of living cells.

For a further assay, the target named is T2, human GST-CLK1 (Homo sapiens, UniProt P49759).
T2 construct: purified human GST-CLK1 (129-end, SignalChem) enzyme; purchased SignalChem
T2 sequence (P49759 129-484 limits assumed): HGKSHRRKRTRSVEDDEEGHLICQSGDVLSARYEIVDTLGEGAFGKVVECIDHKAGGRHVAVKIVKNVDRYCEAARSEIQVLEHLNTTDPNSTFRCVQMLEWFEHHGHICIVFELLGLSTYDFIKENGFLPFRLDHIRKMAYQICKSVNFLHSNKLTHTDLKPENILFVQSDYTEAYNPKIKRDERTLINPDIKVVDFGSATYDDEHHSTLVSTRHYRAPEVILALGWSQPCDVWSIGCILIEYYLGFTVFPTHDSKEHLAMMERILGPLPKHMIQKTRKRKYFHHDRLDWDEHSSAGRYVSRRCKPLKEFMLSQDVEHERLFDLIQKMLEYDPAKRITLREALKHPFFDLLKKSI
Put plainly: GST-CLK1 enzyme inhibition, ADP-Glo kinase assay. The note with it: ATP 10 μM, GST-CLK1 129-end. Format: biochemical. The method in brief:
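Human GST-CLK1 (129-end, 3 ng) reacted with substrate and 10 μM ATP for 1 h at 25° C in 40 mM Tris-HCl pH 7.4, 20 mM MgCl2, 0.5 mg/mL BSA, 50 μM DTT. ADP-Glo luminescence was normalised to solvent control; IC50 (nM) from 3 data sets.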

The test system of a further assay is MDA-MB-468 cell line. Put plainly: Inhibition of proliferation of MDA-MB-468 cancer cells (Cell Titer-Glo). The class given is cell-based. The settings on record: Homo sapiens, MDA-MB-468, 72 hours. The procedure: as §1
The next assay deals with LRRK2 (Homo sapiens, UniProt Q5S007). Description: LRRK2 enzyme inhibition, ADP-Glo kinase assay. Format: biochemical. On the set-up: purchased Invitrogen PR8604B. The note with it: ATP 10 μM. The method in brief:
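Purified human LRRK2 (25 ng) with 10 μM ATP and 0.2 μg substrate in 40 mM Tris-HCl pH 7.4, 20 mM MgCl2, 0.5 mg/mL BSA, 50 μM DTT, 2 h at 25° C. ADP-Glo luminescence; 12-point compound series from 50 μM final; IC50 relative to solvent control.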

For orientation: IC50 means the concentration at which inhibition is half-maximal. Broadly, the GI50 is the concentration giving 50% growth inhibition.

LRRK2, sequence (Q5S007 970-2527 limits assumed): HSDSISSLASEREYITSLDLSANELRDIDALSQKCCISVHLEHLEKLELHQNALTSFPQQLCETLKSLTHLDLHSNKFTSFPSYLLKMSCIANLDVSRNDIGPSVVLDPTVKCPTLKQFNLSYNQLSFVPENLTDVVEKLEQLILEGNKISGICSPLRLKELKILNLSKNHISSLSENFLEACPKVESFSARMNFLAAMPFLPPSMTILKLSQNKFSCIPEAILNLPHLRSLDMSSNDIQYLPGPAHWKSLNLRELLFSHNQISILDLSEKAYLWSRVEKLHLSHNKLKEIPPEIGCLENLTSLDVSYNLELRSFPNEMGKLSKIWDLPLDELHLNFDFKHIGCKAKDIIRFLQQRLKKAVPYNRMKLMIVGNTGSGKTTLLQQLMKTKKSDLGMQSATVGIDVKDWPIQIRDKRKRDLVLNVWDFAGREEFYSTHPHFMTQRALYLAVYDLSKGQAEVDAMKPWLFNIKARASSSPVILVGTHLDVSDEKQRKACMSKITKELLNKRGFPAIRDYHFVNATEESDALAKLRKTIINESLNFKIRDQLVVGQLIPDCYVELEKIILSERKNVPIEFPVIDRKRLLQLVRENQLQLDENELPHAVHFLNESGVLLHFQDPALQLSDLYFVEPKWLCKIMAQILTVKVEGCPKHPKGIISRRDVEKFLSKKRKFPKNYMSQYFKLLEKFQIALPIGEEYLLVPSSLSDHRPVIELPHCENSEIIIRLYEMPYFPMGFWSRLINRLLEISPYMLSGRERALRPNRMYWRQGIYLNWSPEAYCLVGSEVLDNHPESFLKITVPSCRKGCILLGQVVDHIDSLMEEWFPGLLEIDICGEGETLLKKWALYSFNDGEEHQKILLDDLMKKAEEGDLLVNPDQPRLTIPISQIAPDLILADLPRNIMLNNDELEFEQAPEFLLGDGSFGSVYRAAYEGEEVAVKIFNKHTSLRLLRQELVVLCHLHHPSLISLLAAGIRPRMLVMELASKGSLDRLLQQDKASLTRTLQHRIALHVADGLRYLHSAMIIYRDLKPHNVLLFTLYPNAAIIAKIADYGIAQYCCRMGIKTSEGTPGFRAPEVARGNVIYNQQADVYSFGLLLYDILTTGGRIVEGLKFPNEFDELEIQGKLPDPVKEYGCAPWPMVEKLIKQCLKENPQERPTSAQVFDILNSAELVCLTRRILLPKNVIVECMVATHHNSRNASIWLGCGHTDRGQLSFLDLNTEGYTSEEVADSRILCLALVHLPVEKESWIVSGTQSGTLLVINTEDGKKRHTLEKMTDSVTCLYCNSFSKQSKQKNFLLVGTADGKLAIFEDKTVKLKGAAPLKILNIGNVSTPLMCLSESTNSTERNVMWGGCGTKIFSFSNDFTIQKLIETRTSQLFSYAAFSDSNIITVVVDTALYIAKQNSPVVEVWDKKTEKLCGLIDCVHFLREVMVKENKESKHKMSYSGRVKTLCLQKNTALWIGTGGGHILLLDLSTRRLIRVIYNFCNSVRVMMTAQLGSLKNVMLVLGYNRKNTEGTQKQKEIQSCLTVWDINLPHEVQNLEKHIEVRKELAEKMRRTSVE
LRRK2 (G2019S), sequence (Q5S007 970-2527 G2019S limits assumed): as the sequence (Q5S007 970-2527 limits assumed) above, with G1050S counted along it

`COc1cc(S(=O)(=O)N2CCC(N3CCOCC3)CC2)ccc1Nc1nc(NC(C)C)c2c(C#N)c[nH]c2n1` [Example 85, 4-(isopropylamino)-2-((2-methoxy-4-((4-morpholinopiperidin-1-yl)sulfonyl)phenyl)amino)-7H-pyrrolo[2,3-d]pyrimidine-5-carbonitrile]: the IC50 is 0.301 to 1 µM on human GST-DYRK1A, < 0.1 µM against LRRK2 (G2019S) and 0.101 to 0.3 µM at human GST-CLK1. In addition, the GI50 in the assay on MDA-MB-231 cell line and with MDA-MB-468 cell line was < 50 nM in each case.
Regarding `O=C(c1ccc(Nc2nc(NC3CCCCC3)c3cc[nH]c3n2)c2c1CCO2)N1CCOCC1` [Example 244, (7-((4-(cyclohexylamino)-7H-pyrrolo[2,3-d]pyrimidin-2-yl)amino)-2,3-dihydrobenzofuran-4-yl)(morpholino)methanone], the IC50 on human GST-DYRK1A was 0.301 to 1 µM; at LRRK2, < 0.1 µM; against human GST-CLK1, 0.301 to 1 µM. In the assay with MDA-MB-468 cell line, the GI50 is < 50 nM.
In the case of `CC[C@H](C)Nc1nc(Nc2ccc(S(=O)(=O)N3CCC(N4CCOCC4)CC3)cc2OC)nc2[nH]cc(C#N)c12` [Example 263, (S)-4-(sec-butylamino)-2-((2-methoxy-4-((4-morpholinopiperidin-1-yl)sulfonyl)phenyl)amino)-7H-pyrrolo[2,3-d]pyrimidine-5-carbonitrile], the half-maximal inhibitory concentration (IC50) at human GST-DYRK1A and against human GST-CLK1 was 0.301 to 1 µM throughout. Moreover, the GI50 in the assay on MDA-MB-231 cell line is < 50 nM; in the assay with MDA-MB-468 cell line, 51 to 100 nM.
For `COc1cc(P2(=O)CCN(C3CC3)CC2)ccc1Nc1nc(NC2CCCC2)c2cc[nH]c2n1` [Example 242, 4-(4-((4-(cyclopentylamino)-7H-pyrrolo[2,3-d]pyrimidin-2-yl)amino)-3-methoxyphenyl)-1-cyclopropyl-1,4-azaphosphinane 4-oxide], the IC50 at human GST-DYRK1A and at human GST-CLK1 was 0.301 to 1 µM throughout. The molecule also had a GI50 with MDA-MB-468 cell line of 301 to 1000 nM.
As to `COc1cc(S(=O)(=O)N2CCOCC2)ccc1Nc1nc(N[C@@H]2CCOC2)c2c(C(F)(F)F)c[nH]c2n1` [Example 382, (R)-N^2-(2-methoxy-4-(morpholino-sulfonyl)phenyl)-N^4-(tetrahydrofuran-3-yl)-5-(trifluoromethyl)-7H-pyrrolo[2,3-d]pyrimidine-2,4-diamine], the IC50 at human GST-DYRK1A is 0.301 to 1 µM; at LRRK2 (G2019S), < 0.1 µM; against human GST-CLK1 it was 0.301 to 1 µM. In addition, the results for the GI50 in the assay on MDA-MB-231 cell line and with MDA-MB-468 cell line were 101 to 300 nM and 301 to 1000 nM, respectively.
Consider `COc1cc(S(=O)(=O)N2CCC(N3CCOCC3)CC2)ccc1Nc1nc(NCC2CCCC2)c2c(C#N)c[nH]c2n1` [Example 95, 4-((cyclopentylmethyl)amino)-2-((2-methoxy-4-((4-morpholinopiperidin-1-yl)sulfonyl)phenyl)amino)-7H-pyrrolo[2,3-d]pyrimidine-5-carbonitrile], for which the IC50 is 0.301 to 1 µM on human GST-DYRK1A, < 0.1 µM against LRRK2 and 0.301 to 1 µM at human GST-CLK1. Further, the GI50 with MDA-MB-231 cell line and with MDA-MB-468 cell line was 101 to 300 nM in each case.
Take `O=C(c1ccc(Nc2nc(NC3CCCCC3)c3cc[nH]c3n2)c2c1CCO2)N1CCC(N2CCOCC2)CC1` [Example 245, (7-((4-(cyclohexylamino)-7H-pyrrolo[2,3-d]pyrimidin-2-yl)amino)-2,3-dihydrobenzofuran-4-yl)(4-morpholinopiperidin-1-yl)methanone]: the IC50 on human GST-DYRK1A and against human GST-CLK1 was 0.301 to 1 µM in each case. This molecule also registered a GI50 in the assay with MDA-MB-468 cell line of 51 to 100 nM.
As for `COc1cc(S(=O)(=O)N2CCOCC2)ccc1Nc1nc(NC(C)C)c2c(C#N)c[nH]c2n1` [Example 250, 4-(isopropylamino)-2-((2-methoxy-4-(morpholinosulfonyl)phenyl)amino)-7H-pyrrolo[2,3-d]pyrimidine-5-carbonitrile], the IC50 on human GST-DYRK1A was 0.301 to 1 µM; against LRRK2, < 0.1 µM; against human GST-CLK1, 0.301 to 1 µM. For the same molecule, the GI50 with MDA-MB-468 cell line was < 50 nM.
`N#Cc1c[nH]c2nc(Nc3ccc(C(=O)N4CCOCC4)c4c3OCC4)nc(NC3CCCCC3)c12` [Example 321, 4-(cyclo-hexylamino)-2-((4-(morpholine-4-carbonyl)-2,3-dihydrobenzo-furan-7-yl)amino)-7H-pyrrolo[2,3-d]pyrimidine-5-carbonitrile]: the IC50 on human GST-DYRK1A lay within 0.301 to 1 µM; on LRRK2, 0.101 to 0.3 µM; against human GST-CLK1, 0.101 to 0.3 µM. Moreover, the GI50 in the assay with MDA-MB-468 cell line is < 50 nM.
As to `COc1cc(P2(=O)CCN(C3CCOCC3)CC2)ccc1Nc1nc(NC2CCCC2)c2cc[nH]c2n1` [Example 243, 4-(4-((4-(cyclopentylamino)-7H-pyrrolo[2,3-d]pyrimidin-2-yl)amino)-3-methoxyphenyl)-1-(tetrahydro-2H-pyran-4-yl)-1,4-azaphosphinane 4-oxide], the IC50 on human GST-DYRK1A and on human GST-CLK1 was 0.301 to 1 µM each time. For the same molecule, in the assay on MDA-MB-468 cell line, the GI50 was 301 to 1000 nM.
`N#Cc1c[nH]c2nc(Nc3ccc(C(=O)N4CCOCC4)c4c3OCC4)nc(NC3CCCC3)c12` [Example 319, 4-(cyclo-pentylamino)-2-((4-(morpholine-4-carbonyl)-2,3-dihydrobenzo-furan-7-yl)amino)-7H-pyrrolo[2,3-d]pyrimidine-5-carbonitrile]: the IC50 was 0.301 to 1 µM at human GST-DYRK1A, < 0.1 µM against LRRK2 and < 0.1 µM against human GST-CLK1. In addition, in the assay on MDA-MB-468 cell line, the GI50 is < 50 nM.
Turning to `COc1cc(P(C)(C)=O)ccc1Nc1nc(NC2CCCCC2)c2c(C#N)c[nH]c2n1` [Example 117, 4-(cyclohexylamino)-2-((4-(dimethylphosphoryl)-2-methoxyphenyl)amino)-7H-pyrrolo[2,3-d]pyrimidine-5-carbonitrile], the GI50 with MDA-MB-231 cell line and in the assay with MDA-MB-468 cell line was < 50 nM each time. On human GST-CLK1, this molecule had an IC50 of 0.301 to 1 µM.
Take `COCCNc1nc(Nc2ccc(P3(=O)CCN(C4CC4)CC3)cc2OC)nc2[nH]cc(C(F)(F)F)c12` [Example 412, 1-cyclopropyl-4-(3-methoxy-4-((4-((2-methoxyethyl)amino)-5-(trifluoromethyl)-7H-pyrrolo[2,3-d]pyrimidin-2-yl)amino)phenyl)-1,4-azaphosphinane 4-oxide]: the IC50 at human GST-DYRK1A, on LRRK2 and against human GST-CLK1 was < 0.1 µM throughout. The GI50 with MDA-MB-468 cell line was in the range of 301 to 1000 nM.
Regarding `N#Cc1c[nH]c2nc(Nc3ccc(C(=O)N4CCC(N5CCOCC5)CC4)c4c3OCC4)nc(NC3CCCC3)c12` [Example 320, 4-(cyclo-pentylamino)-2-((4-(4-morpholino-piperidine-1-carbonyl)-2,3-dihydro-benzofuran-7-yl)amino)-7H-pyrrolo[2,3-d]pyrimidine-5-carbonitrile], the IC50 on human GST-DYRK1A and against human GST-CLK1 was < 0.1 µM throughout. Besides, in the assay with MDA-MB-468 cell line, the GI50 lay within 301 to 1000 nM.
For `COc1cc(S(=O)(=O)N2CCOCC2)ccc1Nc1nc(N[C@H]2CCOC2)c2c(C(F)(F)F)c[nH]c2n1` [Example 383, (S)-N^2-(2-methoxy-4-(morpholino-sulfonyl)phenyl)-N^4-(tetrahydrofuran-3-yl)-5-(trifluoromethyl)-7H-pyrrolo[2,3-d]pyrimidine-2,4-diamine], the IC50 is 0.301 to 1 µM at human GST-DYRK1A, < 0.1 µM on LRRK2 (G2019S) and 0.301 to 1 µM against human GST-CLK1. The GI50 in the assay on MDA-MB-231 cell line fell in the range of 101 to 300 nM; in the assay with MDA-MB-468 cell line it was 301 to 1000 nM.
